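Compound exposure: 48 hours, 5 concentrations, 96-well plates. GI50 = concentration required for 50% inhibition of growth.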 The source made the active and inactive calls. Rule as the data show it: active = GI50 up to about 1.1 µM and inactive = higher.
Tests used:
Test in all cases: NCI anticancer screen, dose series, 48 h
UACC-62 = system: UACC-62
RPMI-8226 = system: RPMI-8226
NCI/ADR-RES = system: NCI/ADR-RES
CAKI-1 = system: CAKI-1
T47D = system: T47D
SNB-75 = system: SNB-75
DU-145 = system: DU-145
HOP-62 = system: HOP-62
K562 = system: K562
HL-60 = system: HL-60
SF-295 = system: SF-295
M14 = system: M14
ACHN = system: ACHN
SK-MEL-2 = system: SK-MEL-2
SW-620 = system: SW-620
U-251 = system: U-251
UO-31 = system: UO-31
UACC-257 = system: UACC-257
SN12C = system: SN12C
SF-268 = system: SF-268
HCT-116 = system: HCT-116
NCI-H522 = system: NCI-H522
786-0 = system: 786-0
OVCAR-5 = system: OVCAR-5
SNB-19 = system: SNB-19
SK-MEL-5 = system: SK-MEL-5
Hs-578T = system: Hs-578T
TK-10 = system: TK-10
HT-29 = system: HT-29
BT-549 = system: BT-549
A549 = system: A549
SK-OV-3 = system: SK-OV-3
KM12 = system: KM12
NCI-H226 = system: NCI-H226
SK-MEL-28 = system: SK-MEL-28
COLO 205 = system: COLO 205
PC-3 = system: PC-3
A498 = system: A498
MDA-MB-435 = system: MDA-MB-435
HOP-92 = system: HOP-92
SF-539 = system: SF-539
MDA-N = system: MDA-N
OVCAR-3 = system: OVCAR-3
HCT-15 = system: HCT-15
EKVX = system: EKVX
CCRF-CEM = system: CCRF-CEM
NCI-H23 = system: NCI-H23
MOLT-4 = system: MOLT-4
LOX IMVI = system: LOX IMVI
NCI-H460 = system: NCI-H460
RXF 393 = system: RXF 393
Malme-3M = system: Malme-3M
OVCAR-8 = system: OVCAR-8
IGROV-1 = system: IGROV-1
MDA-MB-231 = system: MDA-MB-231

## CN(C)c1ccc(/C=N/NC2=N/C(=C\c3ccco3)C(=O)N2)cc1
UACC-62
  GI50: > 100 µM (inactive)
RPMI-8226
  GI50: > 100 µM (inactive)
NCI/ADR-RES
  GI50: > 100 µM (inactive)
CAKI-1
  GI50: > 100 µM (inactive)
T47D
  GI50: > 100 µM (inactive)
SNB-75
  GI50: > 100 µM (inactive)
DU-145
  GI50: > 100 µM (inactive)
HOP-62
  GI50: > 100 µM (inactive)
K562
  GI50: > 100 µM (inactive)
HL-60
  GI50: > 100 µM (inactive)
SF-295
  GI50: > 100 µM (inactive)
M14
  GI50: > 100 µM (inactive)
ACHN
  GI50: > 100 µM (inactive)
SK-MEL-2
  GI50: > 100 µM (inactive)
SW-620
  GI50: > 100 µM (inactive)
U-251
  GI50: > 100 µM (inactive)
UO-31
  GI50: > 100 µM (inactive)
UACC-257
  GI50: > 100 µM (inactive)
SN12C
  GI50: > 100 µM (inactive)
SF-268
  GI50: > 100 µM (inactive)
HCT-116
  GI50: > 100 µM (inactive)
NCI-H522
  GI50: > 100 µM (inactive)
786-0
  GI50: > 100 µM (inactive)
OVCAR-5
  GI50: > 100 µM (inactive)
SNB-19
  GI50: > 100 µM (inactive)
SK-MEL-5
  GI50: > 100 µM (inactive)
Hs-578T
  GI50: > 100 µM (inactive)
TK-10
  GI50: > 100 µM (inactive)
HT-29
  GI50: > 100 µM (inactive)
BT-549
  GI50: > 100 µM (inactive)
A549
  GI50: > 100 µM (inactive)
SK-OV-3
  GI50: > 100 µM (inactive)
KM12
  GI50: > 100 µM (inactive)
NCI-H226
  GI50: > 100 µM (inactive)
SK-MEL-28
  GI50: > 100 µM (inactive)
COLO 205
  GI50: > 100 µM (inactive)
PC-3
  GI50: > 100 µM (inactive)
A498
  GI50: > 100 µM (inactive)
MDA-MB-435
  GI50: > 100 µM (inactive)
HOP-92
  GI50: > 100 µM (inactive)
SF-539
  GI50: > 100 µM (inactive)
MDA-N
  GI50: > 100 µM (inactive)
OVCAR-3
  GI50: > 100 µM (inactive)
HCT-15
  GI50: > 100 µM
EKVX
  GI50: > 100 µM (inactive)
CCRF-CEM
  GI50: > 100 µM (inactive)
NCI-H23
  GI50: > 100 µM (inactive)
MOLT-4
  GI50: > 100 µM (inactive)
LOX IMVI
  GI50: > 100 µM (inactive)
NCI-H460
  GI50: > 100 µM (inactive)
RXF 393
  GI50: > 100 µM (inactive)
Malme-3M
  GI50: > 100 µM (inactive)
OVCAR-8
  GI50: > 100 µM (inactive)
IGROV-1
  GI50: > 100 µM (inactive)
MDA-MB-231
  GI50: > 100 µM (inactive)
